The target of one test is Mpro (Severe acute respiratory syndrome coronavirus 2, UniProt P0DTD1). As to conditions: read-out: IC50 (half-maximal inhibitory concentration), Dai et al., Science 2020; cited from earlier work.
Test [1] has as its system SARS-COV-2. Conditions: VeroE6 cells, RNA replication by qPCR; Hattori et al. 2021; read-out: EC50, blocking of SARS-COV-2 infection; cited from earlier work. (Real-time PCR tracks product formation cycle by cycle.)
Test [2] deals with SARS-COV-2. In words: microbe, parasite or virus in culture. The test is classed as cell-based. As to conditions: Vero cells; for reduction in infectivity titres compared with the control: 10 μM; for reduction in the infectivity titres compared with the control: 4 h pre-incubation, MOI 0.04, 48 h; for inhibition at 8 µM / inhibition at 6 µM: Severe acute respiratory syndrome coronavirus 2; for inhibition at 8 µM: read-out: inhibition percentage; for inhibition at 6 µM: read-out: inhibition of viral replication.

Test [3] deals with SARS-COV-2. As to conditions: Rut et al., Nat. Chem. Biol. 2021; cited from earlier work.
Where [4] appears, read: 6 μM, same experimental conditions.

Like-named read-outs stand apart in the source and are kept apart here.

On to `O=C[C@H](C[C@@H]1CCNC1=O)NC(=O)[C@H](Cc1cccc(F)c1)NC(=O)c1cc2ccccc2[nH]1` [11b], for which the IC50 on Mpro is 0.04 µM.
As to `O=C(Oc1cncc(Cl)c1)c1cccc2c1CCN2` [GRL-1720], in the test on SARS-COV-2 [1], the EC50 (commonly the concentration that produces a half-maximal response) is 15 ± 4 µM.
Regarding `C=C(CC)C(=O)c1ccc(OCC(=O)Nc2ccc3c(cnn3C)c2)c(Cl)c1Cl` [P7, 2-(2,3-dichloro-4-(2-methylenebutanoyl)phenoxy)-N-(1-methyl-1H-indazol-5-yl)acetamide], the “inhibition of viral replication” value in the test on SARS-COV-2 [2] (setting [4]) was “did not inhibit virus replication at all”. In the test with SARS-COV-2 [2] (same experimental conditions), the “reduction in infectivity titres compared with the control” value (“reduction in infectivity titres” below) is 100% and the inhibition (usually the change of the read-out against control, counted positive when it falls) at 8 µM was about 96.7%. Further, the “reduction in the infectivity titres compared with the control” value (shortened to “reduction in the infectivity titres”) in the test with SARS-COV-2 [2] (16.6 μM) is 100%.
As to `C=C(CC)C(=O)c1ccc(OCC(=O)Nc2ccc3[nH]ncc3c2)c(Cl)c1Cl` [P26, 2-(2.3-dichloro-4-(2-methylenebutanoyl)phenoxy)-N-(1H-indazol-5-yl)acetamide], in the test with SARS-COV-2 [2] (same experimental conditions), the “reduction in infectivity titres” value was determined as 93.09% and the inhibition at 8 µM is about 52.1%. In addition, the “reduction in the infectivity titres” value in the test with SARS-COV-2 [2] (16.6 μM) was 97.96%. Also, in the test with SARS-COV-2 [2] (setting [4]), the inhibition at 6 µM was about 30%.
`C=C(CC)C(=O)c1ccc(OCC(=O)Nc2cccc3cn(C)nc23)c(Cl)c1Cl` [P30, 2-(2,3-dichloro-4-(2-methylenebutanoyl)phenoxy)-N-(2-methyl-2H-indazol-7-yl)acetamide]: the “reduction in the infectivity titres” value in the test with SARS-COV-2 [2] (5.54 μM) worked out at 96.75%. For the same compound, in the test on SARS-COV-2 [2] (same experimental conditions), the “reduction in infectivity titres” value worked out at 100% and the inhibition at 8 µM is about 99.7%. Further, in the test with SARS-COV-2 [2] (setting [4]), the inhibition at 6 µM was about 30%.
Consider Ac-Abu-dTyr-Leu-Gln-VS [Ac-QSS-VS (15)], for which the EC50 with SARS-COV-2 [3] was 3.7 µM.

The values above are taken from patent US20240287003A1, “ETHACRYNIC ACID DERIVATIVES AS INHIBITORS OF MPRO PROTEASE AND SARS-COV-2 REPLICATION” (UNIVERSITE EUROMEDITERRANEENNE DE FES, priority 2021, published 2024).
